Drawing on patent EP4806894A1, “TNAP INHIBITORY COMPOUND AND USE THEREOF” (Rednvia Co., Ltd., priority 2023, dated 2025), this text covers IC50 and inhibition for 27 compounds.

pIC50: −log10 of the molar value. Structures can show the parent of a compound that is named as a salt.

Assay [1] has as its target T1, TNAP (Homo sapiens, UniProt P05186).
T1 sequence (P05186 18-502 limits assumed): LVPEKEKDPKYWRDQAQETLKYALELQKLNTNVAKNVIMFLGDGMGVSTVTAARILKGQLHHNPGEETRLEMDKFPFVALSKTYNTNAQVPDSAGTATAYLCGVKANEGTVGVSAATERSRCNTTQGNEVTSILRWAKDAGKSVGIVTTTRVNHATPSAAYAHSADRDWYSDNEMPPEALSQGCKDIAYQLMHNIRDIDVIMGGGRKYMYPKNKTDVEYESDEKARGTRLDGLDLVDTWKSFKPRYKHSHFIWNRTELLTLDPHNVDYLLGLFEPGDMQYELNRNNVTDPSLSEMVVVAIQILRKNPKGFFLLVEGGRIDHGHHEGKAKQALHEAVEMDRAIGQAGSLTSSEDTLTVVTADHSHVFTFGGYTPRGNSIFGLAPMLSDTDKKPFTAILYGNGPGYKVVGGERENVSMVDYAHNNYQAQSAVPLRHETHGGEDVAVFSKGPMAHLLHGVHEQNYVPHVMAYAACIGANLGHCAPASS
Nature of the assay: TNAP inhibitory activity, colorimetric assay (alkaline phosphatase assay kit ab83369, pNPP substrate). The class given is biochemical. Conditions: TNAP enzyme, 2 hours at room temperature, absorbance 405 nm.

Assay [2] relates to saos-2 cells. Nature of the assay: Anticalcification efficacy in saos-2 cells (osteogenic medium, Alizarin Red staining). Type of assay: cell-based. Conditions: Homo sapiens, 168 h, test compound 1 µM, 7 days osteogenic medium, Alizarin Red absorbance 540 nm, read-out: calcification inhibition. The gist of the method: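 Saos-2 cells at 80–90% confluence induced for 7 days in osteogenic medium (DMEM, 100 nM dexamethasone, 10 mM β-glycerophosphate, 0.05 mM ascorbic acid), compound (0.5, 1, 5, 10 […]) added with each medium change. Alizarin Red staining eluted with cetylpyridinium chloride, A540 read; inhibition taken against OM-only absorbance.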

In the case of `COc1ccc(OC)c(S(=O)(=O)Nc2cnc3c(c2)CN(C(=O)OC(C)(C)C)CC3)c1` [Example 89, tert-butyl 3-((2,5-dimethoxyphenyl)sulfonamido)-7,8-dihydro-1,6-naphthyridine-6(5H)-carboxylate], in assay [1], the pIC50 (in general, −log10 of the IC50, conventionally taken in molar units) was 7.00 to 8.00. In assay [2], the inhibition (commonly how much of the control response was suppressed) at 1 µM was no less than 50%.

`COc1ccc(F)cc1S(=O)(=O)Nc1cnc2c(c1)CNCC2` [Example 90, 5-fluoro-2-methoxy-N-(5,6,7,8-tetrahydro-1,6-naphthyridine-3-yl)benzenesulfonamide hydrochloride] had a pIC50 in assay [1] of 6.00 to 7.00. Also, the inhibition at 1 µM in assay [2] was in the range of 0 to 50%.

Compound `O=S(=O)(Nc1cnc2c(c1)CNCC2)c1cc(F)ccc1Br` [Example 91, 5-fluoro-2-bromo-N-(5,6,7,8-tetrahydro-1,6-naphthyridine-3-yl)benzenesulfonamide hydrochloride] showed a pIC50 in assay [1] of no more than 6.00. In addition, the inhibition at 1 µM in assay [2] was less than 0%.

Consider `COc1ccc(Cl)cc1S(=O)(=O)Nc1cnc2c(c1)CNCC2` [Example 92, 5-chloro-2-methoxy-N-(5,6,7,8-tetrahydro-1,6-naphthyridine-3-yl)benzenesulfonamide hydrochloride], for which the pIC50 in assay [1] was 7.00 to 8.00. Also, the inhibition at 1 µM in assay [2] is no less than 50%.

Take `COc1ccc(Br)cc1S(=O)(=O)Nc1cnc2c(c1)CNCC2` [Example 93, 5-bromo-2-methoxy-N-(5,6,7,8-tetrahydro-1,6-naphthyridine-3-yl)benzenesulfonamide hydrochloride]: the pIC50 in assay [1] was 7.00 to 8.00. Further, in assay [2], the inhibition at 1 µM is no less than 50%.

`COc1ccc(OC)c(S(=O)(=O)Nc2cnc3c(c2)CNCC3)c1` [Example 94, 2,5-dimethoxy-N-(5,6,7,8-tetrahydro-1,6-naphthyridine-3-yl)benzenesulfonamide hydrochloride] showed a pIC50 in assay [1] of 7.00 to 8.00. For the same compound, the inhibition at 1 µM in assay [2] is no less than 50%.

Compound `CCOC(=O)N1CCc2ncc(NS(=O)(=O)c3cc(F)ccc3OC)cc2C1` [Example 95, ethyl3-((5-fluoro-2-methoxyphenyl)sulfonamido)-7,8-dihydro-1,6-naphthyridine-6(5H)-carboxylate] gave a pIC50 in assay [1] of 6.00 to 7.00. Also, the inhibition at 1 µM in assay [2] is no less than 50%.

On to `CCOC(=O)N1CCc2ncc(NS(=O)(=O)c3cc(Cl)ccc3OC)cc2C1` [Example 96, ethyl3-((5-chloro-2-methoxyphenyl)sulfonamido)-7,8-dihydro-1,6-naphthyridine-6(5H)-carboxylate], for which the pIC50 in assay [1] was 7.00 to 8.00. Besides, the inhibition at 1 µM in assay [2] is no less than 50%.

Consider `CCOC(=O)N1CCc2ncc(NS(=O)(=O)c3cc(Br)ccc3OC)cc2C1` [Example 97, ethyl3-((5-bromo-2-methoxyphenyl)sulfonamido)-7,8-dihydro-1,6-naphthyridine-6(5H)-carboxylate], for which, in assay [1], the pIC50 is 6.00 to 7.00. In addition, in assay [2], the inhibition at 1 µM was no less than 50%.

`COc1ccc(Cl)cc1S(=O)(=O)Nc1cnc2c(c1)CN(C(=O)OCC(C)(C)C)CC2` [Example 98, neopentyl3-((5-chloro-2-methoxyphenyl)sulfonamido)-7,8-dihydro-1,6-naphthyridine-6(5H)-carboxylate] gave a pIC50 in assay [1] of 6.00 to 7.00. Besides, the inhibition at 1 µM in assay [2] was no less than 50%.

`COc1ccc(Br)cc1S(=O)(=O)Nc1cnc2c(c1)CN(C(=O)OCC(C)(C)C)CC2` [Example 99, neopentyl3-((5-bromo-2-methoxyphenyl)sulfonamido)-7,8-dihydro-1,6-naphthyridine-6(5H)-carboxylate]: the pIC50 in assay [1] was 6.00 to 7.00. Also, the inhibition at 1 µM in assay [2] was less than 0%.

In the case of `COc1ccc(OC)c(S(=O)(=O)Nc2cnc3c(c2)CN(C(=O)OCC(C)(C)C)CC3)c1` [Example 100, neopentyl3-((5-methoxy-2-methoxyphenyl)sulfonamido)-7,8-dihydro-1,6-naphthyridine-6(5H)-carboxylate], the pIC50 in assay [1] is 6.00 to 7.00. The inhibition at 1 µM in assay [2] is no less than 50%.

For the compound `COc1ccc(Cl)cc1S(=O)(=O)Nc1cnc2c(c1)CN(C(=O)OCCF)CC2` [Example 101, 2-fluoroethyl-3-((5-chloro-2-methoxyphenyl)sulfonamido)-7,8-dihydro-1,6-naphthyridine-6(5H)-carboxylate], the pIC50 in assay [1] was 7.00 to 8.00. The inhibition at 1 µM in assay [2] is less than 0%.

With `COc1ccc(Br)cc1S(=O)(=O)Nc1cnc2c(c1)CN(C(=O)OCCF)CC2` [Example 102, 2-fluoroethyl3-((5-bromo-2-methoxyphenyl)sulfonamido)-7,8-dihydro-1,6-naphthyridine-6(5H)-carboxylate], the pIC50 in assay [1] is 7.00 to 8.00. Also, the inhibition at 1 µM in assay [2] is no less than 50%.

As for `COc1ccc(OC)c(S(=O)(=O)Nc2cnc3c(c2)CN(C(=O)OCCF)CC3)c1` [Example 103, 2-fluoroethyl-3-((5-methoxy-2-methoxyphenyl)sulfonamido)-7,8-dihydro-1,6-naphthyridine-6(5H)-carboxylate], the pIC50 in assay [1] was 7.00 to 8.00. The inhibition at 1 µM in assay [2] was no less than 50%.

Take `COc1ccc(Cl)cc1S(=O)(=O)Nc1cnc2c(c1)CN(C(=O)NC(C)C)CC2` [Example 104, 3-((5-chloro-2-methoxyphenyl)sulfonamido)-N-isopropyl-7,8-dihydro-1,6-naphthyridine-6(5H)-carboxamide]: the pIC50 in assay [1] is 7.00 to 8.00. The inhibition at 1 µM in assay [2] was no less than 50%.

`COc1ccc(F)cc1S(=O)(=O)Nc1cnc2c(c1)CN(C(=O)NC(C)C)CC2` [Example 105, 3-((5-fluoro-2-methoxyphenyl)sulfonamido)-N-isopropyl-7,8-dihydro-1,6-naphthyridine-6(5H)-carboxamide] gave a pIC50 in assay [1] of 7.00 to 8.00. For the same compound, the inhibition at 1 µM in assay [2] is no less than 50%.

As for `CCCCCNC(=O)N1CCc2ncc(NS(=O)(=O)c3cc(Cl)ccc3OC)cc2C1` [Example 106, 3-((5-chloro-2-methoxyphenyl)sulfonamido)-N-pentyl-7,8-dihydro-1,6-naphthyridine-6(5H)-carboxamide], the pIC50 in assay [1] is 6.00 to 7.00. Moreover, the inhibition at 1 µM in assay [2] was no less than 50%.

As to `COc1ccc(Cl)cc1S(=O)(=O)Nc1cnc2c(c1)CN(C(=O)NCC(F)F)CC2` [Example 107, 3-((5-chloro-2-methoxyphenyl)sulfonamido)-N-(2,2-difluoroethyl)-7,8-dihydro-1,6-naphthyridine-6(5H)-carboxamide], the pIC50 in assay [1] is 7.00 to 8.00. In addition, in assay [2], the inhibition at 1 µM is no less than 50%.

On to `COc1ccc(Br)cc1S(=O)(=O)Nc1cnc2c(c1)CN(C(=O)NCC(F)F)CC2` [Example 108, 3-((5-bromo-2-methoxyphenyl)sulfonamido)-N-(2,2-difluoroethyl)-7,8-dihydro-1,6-naphthyridine-6(5H)-carboxamide], for which, in assay [1], the pIC50 is 7.00 to 8.00. Moreover, the inhibition at 1 µM in assay [2] was no less than 50%.

Consider `COc1ccc(Cl)cc1S(=O)(=O)Nc1cnc2c(c1)CN(C(=O)N1CCOCC1)CC2` [Example 109, 5-chloro-2-methoxy-N-(6-(morpholine-4-carbonyl)-5,6,7,8-tetrahydro-1,6-naphthyridine-3-yl)benzenesulfonamide], for which the pIC50 in assay [1] was 7.00 to 8.00. For the same compound, in assay [2], the inhibition at 1 µM was no less than 50%.

The compound `COc1ccc(Br)cc1S(=O)(=O)Nc1cnc2c(c1)CN(C(=O)N1CCOCC1)CC2` [Example 110, 5-bromo-2-methoxy-N-(6-(morpholine-4-carbonyl)-5,6,7,8-tetrahydro-1,6-naphthyridine-3-yl)benzenesulfonamide] showed a pIC50 in assay [1] of 7.00 to 8.00. Further, the inhibition at 1 µM in assay [2] was no less than 50%.

For the compound `CNC(=O)N1CCc2ncc(NS(=O)(=O)c3cc(Br)ccc3OC)cc2C1` [Example 111, 3-((5-bromo-2-methoxyphenyl)sulfonamido)-N-methyl-7,8-dihydro-1,6-naphthyridine-6(5H)-carboxamide], the pIC50 in assay [1] is 7.00 to 8.00. The inhibition at 1 µM in assay [2] is no less than 50%.

In the case of `COc1ccc(Cl)cc1S(=O)(=O)Nc1cnc2c(c1)CN(C(C)C)CC2` [Example 112, 5-chloro-N-(6-isopropyl-5,6,7,8-tetrahydro-1,6-naphthyridine-3-yl)-2-methoxybenzenesulfonamide], the pIC50 in assay [1] is 6.00 to 7.00. Moreover, the inhibition at 1 µM in assay [2] is less than 0%.

In assay [1], `COc1ccc(Br)cc1S(=O)(=O)Nc1cnc2c(c1)CN(C(C)C)CC2` [Example 113, 5-bromo-N-(6-isopropyl-5,6,7,8-tetrahydro-1,6-naphthyridine-3-yl)-2-methoxybenzenesulfonamide] gave a pIC50 of 6.00 to 7.00. The inhibition at 1 µM in assay [2] was less than 0%.

In assay [1], `COc1ccc(Cl)cc1S(=O)(=O)Nc1cnc2c(c1)CN(c1ncccn1)CC2` [Example 114, 3-5-chloro-2-methoxy-N-(6-(pyrimidine-2-yl)-5,6,7,8-tetrahydro-1,6-naphthyridine-3-yl)benzenesulfonamide] had a pIC50 of 7.00 to 8.00. Also, the inhibition at 1 µM in assay [2] was no less than 50%.

Turning to `COc1ccc(Cl)cc1S(=O)(=O)Nc1cnc2c(c1)CN(C(=O)Nc1ccccc1)CC2` [Example 115, 3-((5-chloro-2-methoxyphenyl)sulfonamido)-N-phenyl-7,8-dihydro-1,6-naphthyridine-6(5H)-carboxamide], the pIC50 in assay [1] is 7.00 to 8.00. Further, in assay [2], the inhibition at 1 µM was no less than 50%.
